In patent US20110136666A1, “CHEMICAL COMPOUNDS” (SYNGENTA CROP PROTECTION, INC., priority 2008, published 2011) one finds pest or weed control data, which are given here for 2 compounds.

The test system of the first test is Solanum nigrum (SOLNI). Put plainly: Post-emergence biological efficacy, glasshouse pot test. Type of test: in vivo. The following applies: 312 h, 250 g/ha, after 13 days, 100=total damage, 0=no damage, read-out: Percentage damage caused to weed species SOLNI. The procedure: (§1) Seeds of Alopecurus myosuroides (ALOMY), Setaria faberi (SETFA), Echinochloa crus-galli (ECHCG), Solanum nigrum (SOLNI), Amaranthus retroflexus (AMARE) and Ipomea hederaceae (IPOHE) were sown in standard soil in pots. After cultivation for 8 days under controlled conditions in a glasshouse (at 24/16° C., day/night; 14 hours light; 65% humidity), the plants were sprayed with an aqueous spray solution derived from the formulation of the technical active ingredient in acetone/water (50:50) solution containing 0.5% Tween 20 (polyoxyethylene sorbitan monolaurate, CAS RN 9005-64-5) to give a final dose of 250 or 1000 g/ha of test compound.
(§2) The test plants were then grown on under controlled conditions in a glasshouse (at 24/16° C., day/night; 14 hours light; 65% humidity) and watered twice daily. After 13 days the test was evaluated (100=total damage to plant; 0=no damage to plant).
As for `COC(=O)c1nc(-c2ccc(C(C)=O)s2)nc(N)c1Cl` [Compound 2-9, 4-Amino-5-chloro-6-methoxycarbonyl-2-(5-methylcarbonyl-thiophen-2-yl)-pyrimidine], the pest or weed control at 250 g/ha came out at 0%.

With `COC(=O)c1nc(-c2ccsc2)nc(N)c1Cl` [Compound 2-16, 4-Amino-5-chloro-6-methoxycarbonyl-2-thiophen-3-ylpyrimidine], the pest or weed control at 250 g/ha is 0%.

The next test deals with Ipomea hederaceae (IPOHE). The description is as above. The note with it: Ipomoea hederacea, 312 h, 250 g/ha, after 13 days, 100=total damage, 0=no damage, read-out: Percentage damage caused to weed species IPONE. Type of test: in vivo. The procedure:
as §1, §2
Take `COC(=O)c1nc(-c2ccc(C(C)=O)s2)nc(N)c1Cl` [Compound 2-9, 4-Amino-5-chloro-6-methoxycarbonyl-2-(5-methylcarbonyl-thiophen-2-yl)-pyrimidine]: the pest or weed control at 250 g/ha was 0%.

On to `COC(=O)c1nc(-c2ccsc2)nc(N)c1Cl` [Compound 2-16, 4-Amino-5-chloro-6-methoxycarbonyl-2-thiophen-3-ylpyrimidine], for which the pest or weed control at 250 g/ha is 40%.

For the next test, the system named is Amaranthus retroflexus (AMARE). The test is described as above. The format is in vivo. The note with it: 312 h, 250 g/ha, after 13 days, 100=total damage, 0=no damage, read-out: Percentage damage caused to weed species AMARE. On the procedure: as §1, §2
`COC(=O)c1nc(-c2ccc(C(C)=O)s2)nc(N)c1Cl` [Compound 2-9, 4-Amino-5-chloro-6-methoxycarbonyl-2-(5-methylcarbonyl-thiophen-2-yl)-pyrimidine]: the pest or weed control at 250 g/ha is 0%.

Consider `COC(=O)c1nc(-c2ccsc2)nc(N)c1Cl` [Compound 2-16, 4-Amino-5-chloro-6-methoxycarbonyl-2-thiophen-3-ylpyrimidine], for which the pest or weed control at 250 g/ha worked out at 0%.

The subject of the next test is Echinochloa crus-galli (ECHCG). The description is as above. Type of test: in vivo. The following applies: 312 h, 250 g/ha, after 13 days, 100=total damage, 0=no damage, read-out: Percentage damage caused to weed species ECHCG. On the procedure:
as §1, §2
As to `COC(=O)c1nc(-c2ccc(C(C)=O)s2)nc(N)c1Cl` [Compound 2-9, 4-Amino-5-chloro-6-methoxycarbonyl-2-(5-methylcarbonyl-thiophen-2-yl)-pyrimidine], the pest or weed control at 250 g/ha turned out to be 0%.

Regarding `COC(=O)c1nc(-c2ccsc2)nc(N)c1Cl` [Compound 2-16, 4-Amino-5-chloro-6-methoxycarbonyl-2-thiophen-3-ylpyrimidine], the pest or weed control at 250 g/ha was determined as 0%.

Another test has as its system Setaria faberi (SETFA). The description is as above. The format is in vivo. The following applies: 312 h, 250 g/ha, after 13 days, 100=total damage, 0=no damage, read-out: Percentage damage caused to weed species SETFA. On the procedure: as §1, §2
As for `COC(=O)c1nc(-c2ccc(C(C)=O)s2)nc(N)c1Cl` [Compound 2-9, 4-Amino-5-chloro-6-methoxycarbonyl-2-(5-methylcarbonyl-thiophen-2-yl)-pyrimidine], the pest or weed control at 250 g/ha is 0%.

For `COC(=O)c1nc(-c2ccsc2)nc(N)c1Cl` [Compound 2-16, 4-Amino-5-chloro-6-methoxycarbonyl-2-thiophen-3-ylpyrimidine], the pest or weed control at 250 g/ha was found to be 0%.

The next test deals with Alopecurus myosuroides (ALOMY). The description is as above. Type of test: in vivo. The note with it: 312 h, 250 g/ha, after 13 days, 100=total damage, 0=no damage, read-out: Percentage damage caused to weed species ALOMY. On the procedure: as §1, §2
In the case of `COC(=O)c1nc(-c2ccc(C(C)=O)s2)nc(N)c1Cl` [Compound 2-9, 4-Amino-5-chloro-6-methoxycarbonyl-2-(5-methylcarbonyl-thiophen-2-yl)-pyrimidine], the pest or weed control at 250 g/ha was 0%.

Consider `COC(=O)c1nc(-c2ccsc2)nc(N)c1Cl` [Compound 2-16, 4-Amino-5-chloro-6-methoxycarbonyl-2-thiophen-3-ylpyrimidine], for which the pest or weed control at 250 g/ha stood at 20%.

In another test the test system is Solanum nigrum (SOLNI). The test can be described thus: Pre-emergence biological efficacy, glasshouse pot test. The following applies: 312 h, 250 g/ha, after 13 days, 100=total damage, 0=no damage, read-out: Percentage damage caused to weed species SOLNI. The format is in vivo. On the procedure: as §1, with “one day” for “8 days”
(§3) The test plants were then grown under controlled conditions in the glasshouse (at 24/16° C., day/night; 14 hours light; 65% humidity) and watered twice daily. After 13 days the test was evaluated (100=total damage to plant; 0=no damage to plant).
For the compound `COC(=O)c1nc(-c2ccc(C(C)=O)s2)nc(N)c1Cl` [Compound 2-9, 4-Amino-5-chloro-6-methoxycarbonyl-2-(5-methylcarbonyl-thiophen-2-yl)-pyrimidine], the pest or weed control at 250 g/ha was determined as 0%.

Consider `COC(=O)c1nc(-c2ccsc2)nc(N)c1Cl` [Compound 2-16, 4-Amino-5-chloro-6-methoxycarbonyl-2-thiophen-3-ylpyrimidine], for which the pest or weed control at 250 g/ha was 30%.

In the next test the test system is Ipomea hederaceae (IPOHE). The description is as above. The format is in vivo. The note with it: Ipomoea hederacea, 312 h, 250 g/ha, after 13 days, 100=total damage, 0=no damage, read-out: Percentage damage caused to weed species IPOHE. The procedure:
as §1, with “one day” for “8 days”
as §3
As for `COC(=O)c1nc(-c2ccc(C(C)=O)s2)nc(N)c1Cl` [Compound 2-9, 4-Amino-5-chloro-6-methoxycarbonyl-2-(5-methylcarbonyl-thiophen-2-yl)-pyrimidine], the pest or weed control at 250 g/ha stood at 0%.

Regarding `COC(=O)c1nc(-c2ccsc2)nc(N)c1Cl` [Compound 2-16, 4-Amino-5-chloro-6-methoxycarbonyl-2-thiophen-3-ylpyrimidine], the pest or weed control at 250 g/ha turned out to be 0%.

For a further test, the system named is Amaranthus retroflexus (AMARE). The test is described as above. The format is in vivo. The note with it: 312 h, 250 g/ha, after 13 days, 100=total damage, 0=no damage, read-out: Percentage damage caused to weed species AMARE. On the procedure:
as §1, with “one day” for “8 days”
as §3
As for `COC(=O)c1nc(-c2ccc(C(C)=O)s2)nc(N)c1Cl` [Compound 2-9, 4-Amino-5-chloro-6-methoxycarbonyl-2-(5-methylcarbonyl-thiophen-2-yl)-pyrimidine], the pest or weed control at 250 g/ha turned out to be 0%.

Consider `COC(=O)c1nc(-c2ccsc2)nc(N)c1Cl` [Compound 2-16, 4-Amino-5-chloro-6-methoxycarbonyl-2-thiophen-3-ylpyrimidine], for which the pest or weed control at 250 g/ha was determined as 90%.

The test system of the next test is Echinochloa crus-galli (ECHCG). Described as above. The format is in vivo. The following applies: 312 h, 250 g/ha, after 13 days, 100=total damage, 0=no damage, read-out: Percentage damage caused to weed species ECHCG. On the procedure: as §1, with “one day” for “8 days”
as §3
For the compound `COC(=O)c1nc(-c2ccc(C(C)=O)s2)nc(N)c1Cl` [Compound 2-9, 4-Amino-5-chloro-6-methoxycarbonyl-2-(5-methylcarbonyl-thiophen-2-yl)-pyrimidine], the pest or weed control at 250 g/ha stood at 0%.

For the compound `COC(=O)c1nc(-c2ccsc2)nc(N)c1Cl` [Compound 2-16, 4-Amino-5-chloro-6-methoxycarbonyl-2-thiophen-3-ylpyrimidine], the pest or weed control at 250 g/ha amounted to 0%.

Another test deals with Setaria faberi (SETFA). Described as above. The format is in vivo. The following applies: 312 h, 250 g/ha, after 13 days, 100=total damage, 0=no damage, read-out: Percentage damage caused to weed species SETFA. The procedure: as §1, with “one day” for “8 days”
as §3
As to `COC(=O)c1nc(-c2ccc(C(C)=O)s2)nc(N)c1Cl` [Compound 2-9, 4-Amino-5-chloro-6-methoxycarbonyl-2-(5-methylcarbonyl-thiophen-2-yl)-pyrimidine], the pest or weed control at 250 g/ha came to 0%.

On to `COC(=O)c1nc(-c2ccsc2)nc(N)c1Cl` [Compound 2-16, 4-Amino-5-chloro-6-methoxycarbonyl-2-thiophen-3-ylpyrimidine], for which the pest or weed control at 250 g/ha amounted to 0%.

The subject of a further test is Alopecurus myosuroides (ALOMY). The test is described as above. Type of test: in vivo. The following applies: 312 h, 250 g/ha, after 13 days, 100=total damage, 0=no damage, read-out: Percentage damage caused to weed species ALOMY. The procedure:
as §1, with “one day” for “8 days”
as §3
In the case of `COC(=O)c1nc(-c2ccc(C(C)=O)s2)nc(N)c1Cl` [Compound 2-9, 4-Amino-5-chloro-6-methoxycarbonyl-2-(5-methylcarbonyl-thiophen-2-yl)-pyrimidine], the pest or weed control at 250 g/ha worked out at 0%.

`COC(=O)c1nc(-c2ccsc2)nc(N)c1Cl` [Compound 2-16, 4-Amino-5-chloro-6-methoxycarbonyl-2-thiophen-3-ylpyrimidine]: the pest or weed control at 250 g/ha was determined as 10%.
